Measured values taken from patent US11413278B2, “Compounds and methods for promoting stress resistance” (priority 2015, dated 2022).
pEC50: −log10 of the molar value. Read-outs that look alike come from different tables or passages of the source.

Key:
[1] = tested on: WI-38 cells; conditions: for No H2O2 stress treatment, at 10 uM (fold change): normalized ATP measurement; for Assay 1: H2O2-resistant: YES/NO, if NO, possibly due to repeated freezing/thawing of stocks
[2] = tested on: LC3A/B puncta; test: Autophagy induction analysis (LC3A/B puncta immuno-staining); assay type: cell-based, human; conditions: for Exp. 2, normalized change of nuclei numbers (Less cells): 20X objective, lysosomal LAMP co-staining
Procedure: Immuno-staining of LC3A/B was performed, following a standard protocol. Briefly, WI-38 cells were treated with small molecules for 24 hrs, and then processed and incubated with primary antibody (Cell Signaling, rabbit anti-LC3A/B, 1:100) overnight at 4° C. Next day, samples were processed and incubated with fluorophore-conjugated secondary antibody and further incubated with DAPI dye. Images were collected on the INCell Analyzer 2000 (Experiment 1: 10× objective; Experiment 2: 20× objective) and analyzed with the Developer Toolbox. For Experiment 2, lysosomal-associated membrane protein 2 (LAMP2) was also counter-stained to identify the LC3A/B puncta that colocalize with lysosome and the data were analyzed by the MetaXpress software (Molecular Devices, version 5.1). The intensity of total (Exp. 1) or LAMP2-colocalized LC3A/B puncta (Exp. 2) was normalized the total numbers nuclei in the fields.
These assays were performed, following the same procedures to analyze DNA-damage markers. WI-38 cells were incubated with small molecules for 24 hrs, and then processed and incubated with primary antibody (rabbit anti-LC3A/B, 1:100) overnight at 4 C. The next day, samples were processed and incubated with fluorophore-conjugated secondary antibody and further incubated with DAPI dye. Images were collected on an INCell Analyzer 2000 and analyzed with the Developer software. Total LC3A/B puncta intensity was normalized the total numbers of DAPI-positive nuclei.

[3] = Summary score for characterization of 38 core set hits; conditions: for D = Triple resistant: 2-point score, multiplex resistance (cadmium, MMS, H2O2); for S = Sum of Negative scores: human; for C = H2O2- & Cd-resistant: score, resistance to both H2O2 and cadmium
Procedure: 38 “core set” small molecules are listed and are assigned a score, based on the result for each individual characterization. From our small molecule screen for H2O2-resistance, we isolated 61 top hits. […] Specifically, a 2-point score was assigned to the most well-known and prominent longevity-related phenotypes, such as multiplex resistance, activation of FOXO3 and/or NRF2, and down-regulation of mTOR. Small molecules were also analyzed for their ability to extend C. elegans' lifespan in 4 to 6 independent trials, and the lifespan score scale is from 0 to 2: 0 for no obvious effects, 1 for lifespan extension observed in 2 trials, 2 for observed in more than 2 trials. Certain molecules appeared to have DNA-damaging effects and/or potential cell-toxicity in cultured human cells, and they receive a negative point.

[4] = tested on: WI-38 cells; test: Propidium iodide (PI) cell-death imaging upon H2O2 stress; assay type: cell-based, human; conditions: for Assay 7: H2O2-resistant, at 10 uM, validated by propidium iodide (PI) cell-death imaging: w/H2O2, 3 hrs/4 hrs/5 hrs, YES/NO; for cytotoxicity at 10 µM: Homo sapiens, WI-38
[5] = molecular target: T1, human PARP1 (Homo sapiens, UniProt P09874); test: PARP inhibitor assay (HT Fluorescent Homogeneous PARP Inhibition Assay Kit); assay type: biochemical; conditions: score
T1 construct: purchased Trevigen
Procedure, shortened: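 Compounds (10 μM final) incubated 30 min, room temperature, dark, with human PARP1, nicotinamide adenine dinucleotide and activated DNA. Fluorescent signal generated by 1 hr cycling with diaphorase and resazurin, then reaction stopped.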

[6] = tested on: NRF2; test: in vitro; assay type: cell-based, human
[7] = WI-38 cells, 10 μM, (*) = compromised ability to protect cells from H2O2, could be due to stability issue
[8] = asterisks indicate the loss of the ability to protect cells from H2O2 over time
[9] = derived from dose response curves, 0.6-20 uM, H2O2-resistance of WI-38 cells
[10] = read-out: Est. ED50, dose response 0.6-20 μM, H2O2-resistance
[11] = Exp. 1, 10 μM, 10X objective, WI-38 cells
[12] = H2O2 3 hrs, 10 uM, n = 6, negative control 5.44% ± 0.79%, read-out: Percentage of propidium iodide-positive dead cells (under H2O2 stress treatment), 3 hrs
[13] = H2O2 4 hrs, 10 uM, n = 6, negative control 16.81% ± 1.42%, read-out: Percentage of propidium iodide-positive dead cells (under H2O2 stress treatment), 4 hrs
[14] = H2O2 5 hrs, 10 uM, n = 6, negative control 22.50% ± 1.53%, read-out: Percentage of propidium iodide-positive dead cells (under H2O2 stress treatment), 5 hrs
[15] = pre-treatment at 10 uM, 3.5 hours of H2O2, DMSO control 27.4% ± 6.5%, */**/*** = reduced by one/two/three standard deviations, read-out: Percentage of propidium iodide-positive dead cells (under H2O2 stress treatment), at 10 uM

T1 sequence (P09874 whole entry): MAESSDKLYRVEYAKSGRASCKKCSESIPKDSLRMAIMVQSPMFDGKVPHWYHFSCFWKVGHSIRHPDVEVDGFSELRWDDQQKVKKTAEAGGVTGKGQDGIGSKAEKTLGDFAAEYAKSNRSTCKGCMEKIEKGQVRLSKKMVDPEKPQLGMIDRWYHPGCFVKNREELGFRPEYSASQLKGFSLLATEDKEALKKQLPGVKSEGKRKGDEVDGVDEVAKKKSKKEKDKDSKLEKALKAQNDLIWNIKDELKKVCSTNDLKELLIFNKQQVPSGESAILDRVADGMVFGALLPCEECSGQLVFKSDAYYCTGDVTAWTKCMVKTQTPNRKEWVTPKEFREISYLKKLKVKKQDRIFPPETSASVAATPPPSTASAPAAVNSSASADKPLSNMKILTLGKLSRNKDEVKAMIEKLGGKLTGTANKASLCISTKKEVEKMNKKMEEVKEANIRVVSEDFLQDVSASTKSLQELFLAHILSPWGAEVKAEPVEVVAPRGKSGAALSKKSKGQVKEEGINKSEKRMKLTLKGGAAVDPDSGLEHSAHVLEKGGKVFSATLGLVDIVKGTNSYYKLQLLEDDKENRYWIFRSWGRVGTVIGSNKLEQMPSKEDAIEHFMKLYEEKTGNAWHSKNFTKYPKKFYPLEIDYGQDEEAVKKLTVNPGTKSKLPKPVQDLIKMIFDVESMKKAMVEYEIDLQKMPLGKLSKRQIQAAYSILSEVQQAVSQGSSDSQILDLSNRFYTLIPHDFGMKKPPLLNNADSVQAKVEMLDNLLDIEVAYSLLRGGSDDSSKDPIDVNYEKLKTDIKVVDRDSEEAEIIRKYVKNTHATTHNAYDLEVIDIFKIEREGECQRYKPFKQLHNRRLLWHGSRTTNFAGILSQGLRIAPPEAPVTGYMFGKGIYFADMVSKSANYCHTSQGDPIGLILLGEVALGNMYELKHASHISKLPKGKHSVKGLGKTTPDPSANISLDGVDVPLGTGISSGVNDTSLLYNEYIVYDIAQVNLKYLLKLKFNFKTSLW

| Structure (SMILES) | H2O2-resistant [1, 7] | No H2O2 stress treatment, at 10 uM (fold change) ([1]; WI-38 cells) | Assay 1: H2O2-resistant [1] | H2O2-resistant [1, 8] | pEC50 [1, 9] | pEC50 [1, 10] | Exp. 1, induction of LC3A/B puncta (Up), total intensity normalized by total number of nuclei in the fields [2, 11] | Exp. 2, normalized change of nuclei numbers (Less cells) ([2]; Exp. 2, 10 μM, WI-38 cells) | Exp. 2, normalized change of nuclei numbers (Less cells) ([2]; Exp. 2, 20 μM, WI-38 cells) | H = Potential Autophagy Induction ([2]; score) | H = Potential Autophagy Induction ([2]; summary score) | D = Triple resistant [3] | S = Sum of Negative scores [3] | C = H2O2- & Cd-resistant [3] | Assay 7: H2O2-resistant, at 10 uM, validated by propidium iodide (PI) cell-death imaging ([4]; 10 uM) | cytotoxicity at 10 µM [4, 12] [%] | cytotoxicity at 10 µM [4, 15] [%] | L = PARP inhibition [5] | J = NRF2-dependency for H2O2-resistance ([6]; score) | J = NRF2-dependency for H2O2-resistance ([6]; summary score) | other results |
| --- | --- | --- | --- | --- | --- | --- | --- | --- | --- | --- | --- | --- | --- | --- | --- | --- | --- | --- | --- | --- | --- |
| O=C(Nc1cccc(C(F)(F)F)c1)c1ccc([N+](=O)[O-])o1 [Gr-1E] | YES | 0.96 | YES | YES | 5.43 | 5.56 | Up, 260%, p < 0.01 | Less cells, 75%, | Less cells, 58%, | 0 | 0 | 0 | 0 | 1 | YES | 1.68 | 18.8 | 0 | 0 | 0 | cytotoxicity at 10 µM [4, 13]: 2.95%; cytotoxicity at 10 µM [4, 14]: 3.44% |
| Cc1ccc(NC(=O)c2ccc([N+](=O)[O-])o2)cc1C [Gr-1F] | YES | 0.60 | YES | YES | 4.83 | 5.54 | Up, 151%, p < 0.01 | Less cells, 82%, | Less cells, 73%, | 0 | 0 | 0 | 2 | 1 | YES | 3.55 | 11.2 | 0 | 0 | 0 | cytotoxicity at 10 µM [4, 13]: 3.07%; cytotoxicity at 10 µM [4, 14]: 4.57%; viability of non-stressed cells, reduced by ([6]; human, 24 h, 10 uM): by 50%) |
| O=C(Nc1ccc(Cl)c(Cl)c1)c1ccc([N+](=O)[O-])o1 [Gr-1G] | YES |  | YES | YES | 5.32 | 5.53 | p < 0.001; Up, 2006%, | Less cells, 47%, | Less cells, 67%, | 1 | 1 | 0 | 1 | 1 | YES |  | 34.4 | 0 | 0 | 0 | Assay 15: Potential autophagy induction by LC3A/B puncta assays ([2]; 10 uM & 20 uM, YES/NO): YES; Exp. 1, normalized change of nuclei numbers (Less cells) [2, 11]: Less cells, 41%,; NRF2-dependency for H2O2-resistance, at 10 uM - with H2O2, 1st experiment ([6]; 10 uM, experiment 1 (1st), with H2O2): 1st, YES;; NRF2-dependency for H2O2-resistance, 1st experiment ([6]; 10 uM, with H2O2, NRF2 knockdown in WI-38 cells, YES = resistance reduced by at least 50%, partial = 25% to 50%): YES; |
| O=[N+]([O-])c1ccccc1S(=O)(=O)Nc1cccc2cccnc12 [Gr-3A] | YES | 0.98 | YES | YES | 4.95 | 5.38 |  |  |  | 0 | 0 | 0 | 1 | 1 | YES | 5.54 | 12.4 | 0 | 0 | 0 |  |
| Cc1ccc(S(=O)(=O)Nc2cccc3cccnc23)cc1 [Gr-3B] | YES | 0.90 |  | YES | 5.07 | 5.37 |  |  |  | 0 | 0 | 0 | 0 | 0 | YES | 4.63 | 2.6 | 0 | 0 | 0 |  |
| Nc1ccccc1S(=O)(=O)Nc1cccc2cccnc12 [Gr-3C] | YES | 0.95 |  | YES | 5.19 | 5.34 |  |  |  | 0 | 0 | 0 | 2 | 0 | YES | 5.13 | 3.1 | 0 | 0 | 0 |  |
